Measurements as given in patent publication US11046689B2, “Selective estrogen receptor down-regulators” (AstraZeneca AB, priority 2017, dated 2021).

Molecular target: Estrogen Receptor (ER) in MCF-7 cells (Homo sapiens (Human), UniProt P03372)
Experiment: MCF-7 ER down-regulation assay (immuno-fluorescence)
Assay type: cell-based
Details: stated where not >90%
Protocol: The ability of compounds to down-regulate Estrogen Receptor (ER) numbers was assessed in a cell based immuno-fluorescence assay using the MCF-7 human ductal carcinoma breast cell line. MCF-7 cells were revived directly from a cryovial (approx 5×10^6 cells) in Assay Medium (phenol red free Dulbecco's Modified Eagle's medium (DMEM); Sigma D5921) containing 2 mM L-Glutamine and 5% (v/v) Charcoal/Dextran treated foetal calf serum. Cells were syringed once using a sterile 18G×1.5 inch (1.2×40 mm) broad gauge needle and cell density was measured using a Coulter Counter (Beckman). […] Following cell seeding, plates were incubated overnight at 37° C., 5% CO2 (Liconic carousel incubator). Test data was generated using the LabCyte Echomodel 555 compound reformatter which is part of an automated workcell (Integrated Echo 2 workcell). Compound stock solutions (10 mM) of the test compounds were used to generate a 384 well compound dosing plate (Labcyte P-05525-CV1). […] 40 μL of DMSO added to wells in row P on the source plate allowed for DMSO normalisation across the dose range. To dose the control wells 40 μL of DMSO was added to row O1 and 40 μL of 100 μM fulvestrant in DMSO was added to row O3 on the compound source plate.
The Echo uses acoustic technology to perform direct microplate-to-microplate transfers of DMSO compound solutions to assay plates. The system can be programmed to transfer volumes as low as 2.5 nL in multiple increments between microplates and in so doing generates a serial dilution of compound in the assay plate which is then back-filled to normalise the DMSO concentration across the dilution range. […] The fixing method described above was carried out on the Integrated Echo 2 workcell. Immunostaining was performed using an automated AutoElisa workcell. The PBS/Proclin was aspirated from all wells and the cells permeabilised with 40 μL PBS containing 0.5% Tween™ 20 (v/v) for 1 hour at room temperature. The plates were washed three times in 250 μL of PBS/0.05% (v/v) Tween 20 with Proclin (PBST with a Biocide preservative) and then 20 μL of ERα (SP1) Rabbit monoclonal antibody (Thermofisher) 1:1000 in PBS/Tween™/3% (w/v) Bovine Serum Albumin was added. The plates were incubated overnight at 4° C. (Liconic carousel incubator) and then washed three times in 250 μL of PBS/0.05% (v/v) Tween™ 20 with Proclin (PBST). The plates were then incubated with 20 μL/well of a goat anti-rabbit IgG AlexaFluor 594 or goat anti-rabbit AlexaFluor 488 antibody (Molecular Probes) with Hoechst at 1:5000 in PBS/Tween™/3% (w/v) Bovine Serum Albumin for 1 hour at room temperature. The plates were then washed three times in 250 μL of PBS/0.05% (v/v) Tween™ 20 with Proclin (PBST with a Biocide preservative). 20 μL of PBS was added to each well and the plates covered with a black plate seal and stored at 4° C. before being read. […] The mean total intensity was normalized for cell number giving the total intensity per cell. The data was exported into a suitable software package (such as Origin) to perform curve fitting analysis.

Sequence of Estrogen Receptor (ER) in MCF-7 cells (P03372 whole entry): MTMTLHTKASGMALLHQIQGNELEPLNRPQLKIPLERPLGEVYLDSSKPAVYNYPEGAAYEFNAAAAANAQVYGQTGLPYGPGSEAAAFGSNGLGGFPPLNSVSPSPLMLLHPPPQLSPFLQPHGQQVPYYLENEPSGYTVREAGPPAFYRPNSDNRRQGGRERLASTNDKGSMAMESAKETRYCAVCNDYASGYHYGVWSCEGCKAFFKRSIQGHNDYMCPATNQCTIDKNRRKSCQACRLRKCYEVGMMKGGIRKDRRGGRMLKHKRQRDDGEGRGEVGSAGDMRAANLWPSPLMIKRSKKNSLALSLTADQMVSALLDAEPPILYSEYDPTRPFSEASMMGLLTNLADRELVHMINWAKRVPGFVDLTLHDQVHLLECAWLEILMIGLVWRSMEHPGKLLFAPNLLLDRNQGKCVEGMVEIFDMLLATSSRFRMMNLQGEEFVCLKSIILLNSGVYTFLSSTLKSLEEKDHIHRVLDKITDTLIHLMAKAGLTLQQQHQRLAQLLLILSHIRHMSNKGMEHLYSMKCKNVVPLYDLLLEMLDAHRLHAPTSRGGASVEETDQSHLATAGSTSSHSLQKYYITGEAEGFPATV

Compound | % downregulation (shown in brackets)
COc1ccc(OC[C@@H](C)NCCCF)cc1[C@@H]1c2[nH]c3ccccc3c2C[C@@H](C)N1CC(F)(F)CO [Example 50, 2,2-difluoro-3-((1R,3R)-1-(5-((R)-2-((3-fluoropropyl)amino)propoxy)-2-methoxyphenyl)-3-methyl-1,3,4,9-tetrahydro-2H-pyrido[3,4-b]indol-2-yl)propan-1-ol] | 81%
C[C@@H]1Cc2c([nH]c3ccccc23)[C@@H](c2c(F)ccc(OCCN(C)CCCF)c2F)N1C[C@H](C)C(=O)O [Example 144] | 88%
COCc1ccc(OCCNCCCF)cc1[C@@H]1c2[nH]c3ccccc3c2C[C@@H](C)N1CC(F)(F)F [Example 71, 3-fluoro-N-(2-(4-(methoxy-methyl)-3-((1R,3R)-3-methyl-2-(2,2,2-trifluoroethyl)-2,3,4,9-tetrahydro-1H-pyrido[3,4-b]indol-1-yl)phenoxy)ethyl)propan-1-amine] | 90%
COc1ccc(OCCNCCCF)c(F)c1[C@@H]1c2[nH]c3ccccc3c2C[C@@H](C)N1CC1(F)CC1 [Example 83, 3-fluoro-N-(2-(2-fluoro-3-((1R,3R)-2-((1-fluorocyclo-propyl)methyl)-3-methyl-2,3,4,9-tetrahydro-1H-pyrido[3,4-b]indol-1-yl)-4-methoxy-phenoxy)ethyl)propan-1-amine] | 90%
COc1ccc(OCCNCCCF)cc1[C@@H]1c2[nH]c3ccccc3c2C[C@@H](C)N1C[C@H](C)C(=O)O [Example 53, (S)-3-((1R,3R)-1-(5-(2-((3-fluoropropyl)amino)ethoxy)-2-methoxy-phenyl)-3-methyl-1,3,4,9-tetrahydro-2H-pyrido[3,4-b]indol-2-yl)-2-methyl-propanoic acid] | −(40%)
C[C@@H]1Cc2c([nH]c3ccccc23)[C@@H](c2cccc(OCCNCCCF)n2)N1CC(F)(F)F [Example 34, 3-fluoro-N-(2-((6-((1S,3R)-3-methyl-2-(2,2,2-trifluoroethyl)-2,3,4,9-tetrahydro-1H-pyrido[3,4-b]indol-1-yl)pyridin-2-yl)oxy)ethyl)propan-1-amine] | −(41%)
COc1ccc(O[C@H](C)CNCCCF)cc1[C@@H]1c2[nH]c3ccccc3c2C[C@@H](C)N1CC(F)(F)CO [Example 47, 2,2-difluoro-3-((1R,3R)-1-(5-(((R)-1-((3-fluoropropyl)amino)propan-2-yl)oxy)-2-methoxyphenyl)-3-methyl-1,3,4,9-tetrahydro-2H-pyrido[3,4-b]indol-2-yl)propan-1-ol] | 81%
C[C@@H]1Cc2c([nH]c3ccccc23)[C@@H](c2c(F)ccc(OCCN(C)CCCF)c2C(F)F)N1C[C@H](C)C(=O)O [Example 148, (S)-3-((1R,3R)-1-(2-(difluoro-methyl)-6-fluoro-3-(2-((3-fluoro-propyl)(methyl)amino)ethoxy)phenyl)-3-methyl-1,3,4,9-tetrahydro-2H-pyrido[3,4-b]indol-2-yl)-2-methyl-propanoic acid] | 68%
C[C@@H]1Cc2c([nH]c3ccccc23)[C@@H](c2c(F)ccc(OCCN(C)CCCF)c2F)N1CC1(F)COC1 [Example 154, N-(2-(2,4-difluoro-3-((1R,3R)-2-((3-fluorooxetan-3-yl)methyl)-3-methyl-2,3,4,9-tetrahydro-1H-pyrido[3,4-b]indol-1-yl)phenoxy)ethyl)-3-fluoro-N-methyl-propan-1-amine] | 79%
Cc1c(OCCN(C)CCCF)ccc(F)c1[C@@H]1c2[nH]c3ccccc3c2C[C@@H](C(F)(F)F)N1C[C@H](C)C(=O)O [Example 149, (S)-3-((1R,3S)-1-(6-fluoro-3-(2-((3-fluoropropyl)(methyl)amino)ethoxy)-2-methylphenyl)-3-(trifluoro-methyl)-1,3,4,9-tetrahydro-2H-pyrido[3,4-b]indol-2-yl)-2-methyl-propanoic acid] | 86%
COc1ccc(OCCNCCCF)c(F)c1[C@@H]1c2[nH]c3ccccc3c2C[C@@H](C)N1CC1(F)COC1 [Example 84, 3-fluoro-N-(2-(2-fluoro-3-((1R,3R)-2-((3-fluorooxetan-3-yl)methyl)-3-methyl-2,3,4,9-tetrahydro-1H-pyrido[3,4-b]indol-1-yl)-4-methoxy-phenoxy)ethyl)propan-1-amine] | 83%
Cc1c(OCCNCCCF)ccc(F)c1[C@@H]1c2[nH]c3ccccc3c2CC(C)(C)N1C[C@H](C)C(=O)O [Example 134, (S)-3-((R)-1 (6-fluoro-3-(2-((3-fluoro-propyl)amino)ethoxy)-2-methylphenyl)-3,3-dimethyl-1,3,4,9-tetrahydro-2H-pyrido[3,4-b]indol-2-yl)-2-methyl-propanoic acid] | 85%
